Biological target: T1, recombinant human TrxR1 (Homo sapiens, UniProt Q16881)
T1 construct: purchased Abcam ab204206
T1 sequence (Q16881 1-499 isoform Q16881-5): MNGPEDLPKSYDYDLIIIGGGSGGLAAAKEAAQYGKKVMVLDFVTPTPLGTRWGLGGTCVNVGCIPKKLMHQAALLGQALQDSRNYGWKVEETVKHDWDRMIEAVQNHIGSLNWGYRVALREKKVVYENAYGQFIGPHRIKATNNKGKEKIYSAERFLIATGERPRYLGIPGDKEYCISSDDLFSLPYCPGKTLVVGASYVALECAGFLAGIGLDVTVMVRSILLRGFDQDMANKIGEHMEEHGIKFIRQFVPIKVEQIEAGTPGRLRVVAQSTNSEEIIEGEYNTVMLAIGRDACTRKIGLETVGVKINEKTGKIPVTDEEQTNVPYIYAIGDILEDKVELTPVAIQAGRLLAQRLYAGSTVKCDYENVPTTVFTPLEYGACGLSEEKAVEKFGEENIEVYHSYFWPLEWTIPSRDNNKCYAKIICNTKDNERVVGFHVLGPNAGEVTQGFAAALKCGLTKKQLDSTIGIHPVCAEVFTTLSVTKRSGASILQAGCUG
Test: In vitro TrxR1 activity assay (DTNB reduction)
Format: biochemical
Method: The in vitro TrxR1 activity assay was performed using the DTNB reduction assay. Briefly, 0.1 μM recombinant human TrxR1 or TrxR1 without Sec498 residue (TrxR1 nSec) protein was reduced with 100 μM NADPH in assay buffer (50 mM Tris-HCl, 1 mM EDTA, pH = 7.5) for 30 min at room temperature. The reduced proteins was then treated with the indicated concentrations of PepE (final concentrations of 0.25, 0.5, 1, 2, 4, 6 μM), respectively, and incubated for 1 h at 37 °C. A mixture of assay buffer solution (50 mM Tris-HCl, 1 mM EDTA, pH = 7.5) containing DTNB and NADPH was added then added, making the final concentrations of DTNB and NADPH 2 mM and 200 μM, respectively. The absorbance was monitored at 412 nm using the SpectraMax i3x microplate reader (Molecular Devices). The linear increase of absorbance during the initial 3 min was recorded for calculating the relative enzyme activity. The same amount of DMSO was added to the control experiments and the activity is expressed as the percentage of the control.

- IC50 (DTNB reduction assay, NADPH-reduced TrxR1 0.1 μM, 1 h at 37 °C): 940 nM
- reversibility of TrxR1 inhibition (removal of PepE by Sephadex G-25 desalting column did not recover activity (data not shown)): irreversibly
Compound: C=C1C(=O)OC[C@H]1C(c1cc(OC)c2c(c1)OCO2)c1cc(OC)c2c(c1)OCO2 [PepE, Peperomin E]
